The target in experiment [1] is Protein kinase C delta type (Homo sapiens) (UniProt Q05655). Kind of experiment: Selectivity interaction (Millipore kinase profiler) EUB0000124b PRKCD. The settings on record: at 10 µM.
The target of experiment [2] is Ribosomal protein S6 kinase alpha-2 (Homo sapiens) (UniProt Q15349). Kind of experiment: Selectivity interaction (Millipore kinase profiler) EUB0000124b RPS6KA2. The settings on record: at 10 µM.
Experiment [3] deals with T1, Myosin light chain kinase (Homo sapiens) (UniProt Q32MK0).
T1 sequence (whole entry): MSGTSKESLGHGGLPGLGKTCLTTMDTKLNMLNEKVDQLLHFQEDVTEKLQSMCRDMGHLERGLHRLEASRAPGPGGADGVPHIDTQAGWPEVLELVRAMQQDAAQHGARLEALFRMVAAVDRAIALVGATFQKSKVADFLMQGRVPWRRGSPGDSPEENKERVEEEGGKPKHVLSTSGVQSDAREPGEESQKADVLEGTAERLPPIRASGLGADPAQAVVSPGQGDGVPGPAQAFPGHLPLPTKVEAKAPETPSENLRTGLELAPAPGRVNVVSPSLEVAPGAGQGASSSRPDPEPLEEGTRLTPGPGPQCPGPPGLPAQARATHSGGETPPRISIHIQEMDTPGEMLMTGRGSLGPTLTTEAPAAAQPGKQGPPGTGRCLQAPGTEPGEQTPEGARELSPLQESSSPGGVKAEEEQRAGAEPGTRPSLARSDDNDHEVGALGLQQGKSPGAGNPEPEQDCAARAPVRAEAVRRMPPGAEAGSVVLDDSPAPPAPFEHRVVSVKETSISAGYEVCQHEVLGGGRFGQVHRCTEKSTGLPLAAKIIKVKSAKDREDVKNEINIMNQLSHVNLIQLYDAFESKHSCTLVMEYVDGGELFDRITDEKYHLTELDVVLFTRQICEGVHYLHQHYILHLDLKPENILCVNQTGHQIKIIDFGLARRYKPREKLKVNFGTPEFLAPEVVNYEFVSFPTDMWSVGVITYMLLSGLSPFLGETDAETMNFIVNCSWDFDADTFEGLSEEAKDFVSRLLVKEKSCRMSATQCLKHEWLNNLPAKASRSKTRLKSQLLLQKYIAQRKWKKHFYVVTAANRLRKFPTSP
Kind of experiment: Selectivity interaction (KinomeScan (DiscoverX)) EUB0000229b MYLK3. The following applies: at 10 µM.

The target in experiment [4] is T2, Serine/threonine-protein kinase 36 (Homo sapiens) (UniProt Q9NRP7).
T2 sequence (whole entry): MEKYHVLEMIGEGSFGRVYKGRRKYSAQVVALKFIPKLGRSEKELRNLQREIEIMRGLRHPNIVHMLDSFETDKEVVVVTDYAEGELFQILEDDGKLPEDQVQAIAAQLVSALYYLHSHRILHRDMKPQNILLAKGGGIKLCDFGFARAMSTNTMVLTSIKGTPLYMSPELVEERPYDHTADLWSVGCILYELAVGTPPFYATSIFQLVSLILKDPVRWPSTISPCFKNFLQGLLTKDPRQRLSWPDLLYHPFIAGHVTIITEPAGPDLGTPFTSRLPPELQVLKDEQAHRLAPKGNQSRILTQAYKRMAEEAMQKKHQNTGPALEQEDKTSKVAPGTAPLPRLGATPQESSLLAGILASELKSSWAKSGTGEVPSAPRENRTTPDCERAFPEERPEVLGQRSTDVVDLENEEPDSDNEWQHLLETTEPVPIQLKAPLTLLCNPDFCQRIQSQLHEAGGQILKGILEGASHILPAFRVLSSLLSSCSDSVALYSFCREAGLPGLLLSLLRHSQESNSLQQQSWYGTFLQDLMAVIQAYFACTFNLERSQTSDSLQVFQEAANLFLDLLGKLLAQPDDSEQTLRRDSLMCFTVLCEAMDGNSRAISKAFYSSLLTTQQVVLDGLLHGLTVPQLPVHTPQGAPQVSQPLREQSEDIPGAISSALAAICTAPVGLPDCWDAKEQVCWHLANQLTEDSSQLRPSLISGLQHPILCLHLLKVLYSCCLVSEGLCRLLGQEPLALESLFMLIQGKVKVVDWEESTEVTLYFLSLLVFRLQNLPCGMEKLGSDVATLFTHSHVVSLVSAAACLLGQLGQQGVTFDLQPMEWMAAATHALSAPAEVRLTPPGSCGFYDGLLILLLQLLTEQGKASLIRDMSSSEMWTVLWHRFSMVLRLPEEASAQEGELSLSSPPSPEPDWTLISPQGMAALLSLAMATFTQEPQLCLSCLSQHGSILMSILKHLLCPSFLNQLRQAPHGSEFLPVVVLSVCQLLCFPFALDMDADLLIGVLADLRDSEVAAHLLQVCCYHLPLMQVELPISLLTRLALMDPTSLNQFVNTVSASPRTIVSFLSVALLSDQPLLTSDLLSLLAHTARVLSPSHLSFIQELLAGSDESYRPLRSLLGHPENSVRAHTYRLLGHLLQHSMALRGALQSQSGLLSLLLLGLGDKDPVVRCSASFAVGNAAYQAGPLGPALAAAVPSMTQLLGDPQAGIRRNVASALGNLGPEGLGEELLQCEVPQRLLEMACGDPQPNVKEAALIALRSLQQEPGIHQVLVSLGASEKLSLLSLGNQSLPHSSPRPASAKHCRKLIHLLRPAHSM
Kind of experiment: Selectivity interaction (KinomeScan (DiscoverX)) EUB0000595a STK36. The settings on record: at 10 µM.

In experiment [5] the target is Serine/threonine-protein kinase 26 (Homo sapiens, UniProt Q9P289). Kind of experiment: Selectivity interaction (Kinase panel (literature)) EUB0001199aCl STK26. The settings on record: at 1 µM.
Sequence of Serine/threonine-protein kinase 26 (Q9P289 2-416 limits assumed): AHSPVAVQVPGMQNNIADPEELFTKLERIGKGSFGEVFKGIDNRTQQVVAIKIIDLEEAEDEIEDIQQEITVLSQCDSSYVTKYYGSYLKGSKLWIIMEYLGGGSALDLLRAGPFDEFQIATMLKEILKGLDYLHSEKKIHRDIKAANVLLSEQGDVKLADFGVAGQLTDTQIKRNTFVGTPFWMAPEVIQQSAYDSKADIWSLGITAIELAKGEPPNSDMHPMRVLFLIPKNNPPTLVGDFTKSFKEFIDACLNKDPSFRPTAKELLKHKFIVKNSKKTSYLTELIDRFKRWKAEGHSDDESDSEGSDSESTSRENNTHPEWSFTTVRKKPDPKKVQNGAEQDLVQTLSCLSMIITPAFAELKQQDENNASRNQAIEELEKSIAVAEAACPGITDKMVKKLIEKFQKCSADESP

Sequence of Ribosomal protein S6 kinase alpha-2 (Homo sapiens) (Q15349 whole entry): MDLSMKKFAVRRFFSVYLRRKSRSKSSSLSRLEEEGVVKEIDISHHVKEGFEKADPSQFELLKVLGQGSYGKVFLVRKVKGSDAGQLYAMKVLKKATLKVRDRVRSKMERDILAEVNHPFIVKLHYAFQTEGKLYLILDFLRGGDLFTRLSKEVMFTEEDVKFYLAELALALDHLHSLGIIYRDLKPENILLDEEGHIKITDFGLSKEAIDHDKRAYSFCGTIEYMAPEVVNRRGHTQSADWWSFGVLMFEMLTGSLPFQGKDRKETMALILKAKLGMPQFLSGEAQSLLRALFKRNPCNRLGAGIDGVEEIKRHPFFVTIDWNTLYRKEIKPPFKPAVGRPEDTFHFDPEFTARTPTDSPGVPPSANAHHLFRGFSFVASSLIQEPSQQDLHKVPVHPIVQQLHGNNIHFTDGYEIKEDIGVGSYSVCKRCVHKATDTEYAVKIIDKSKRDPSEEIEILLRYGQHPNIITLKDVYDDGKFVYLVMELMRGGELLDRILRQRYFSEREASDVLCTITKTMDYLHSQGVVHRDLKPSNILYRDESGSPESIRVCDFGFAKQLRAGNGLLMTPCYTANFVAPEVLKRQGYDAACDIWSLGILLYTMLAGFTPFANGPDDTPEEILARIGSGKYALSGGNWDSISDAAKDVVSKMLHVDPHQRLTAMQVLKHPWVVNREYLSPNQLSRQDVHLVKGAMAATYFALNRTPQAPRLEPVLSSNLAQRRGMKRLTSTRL
Sequence of Protein kinase C delta type (Homo sapiens) (Q05655 whole entry, looked up): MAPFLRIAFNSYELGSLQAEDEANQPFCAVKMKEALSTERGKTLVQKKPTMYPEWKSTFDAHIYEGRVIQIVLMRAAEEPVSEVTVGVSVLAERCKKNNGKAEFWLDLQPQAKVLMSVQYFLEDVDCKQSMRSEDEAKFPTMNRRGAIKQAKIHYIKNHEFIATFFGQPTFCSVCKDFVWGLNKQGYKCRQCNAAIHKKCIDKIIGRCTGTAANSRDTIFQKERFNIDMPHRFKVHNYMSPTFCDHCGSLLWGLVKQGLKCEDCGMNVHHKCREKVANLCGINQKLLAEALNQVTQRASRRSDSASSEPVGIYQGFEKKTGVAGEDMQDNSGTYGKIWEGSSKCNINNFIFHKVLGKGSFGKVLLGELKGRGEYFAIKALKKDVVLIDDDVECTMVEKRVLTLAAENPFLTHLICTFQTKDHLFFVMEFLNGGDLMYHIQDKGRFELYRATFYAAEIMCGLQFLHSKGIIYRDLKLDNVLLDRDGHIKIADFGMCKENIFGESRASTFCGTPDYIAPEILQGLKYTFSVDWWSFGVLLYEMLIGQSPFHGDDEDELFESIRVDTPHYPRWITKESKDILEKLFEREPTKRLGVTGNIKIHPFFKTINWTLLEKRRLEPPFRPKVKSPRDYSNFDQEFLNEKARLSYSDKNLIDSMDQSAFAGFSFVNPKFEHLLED

For `CC(=O)Nc1cccc(-n2c(=O)n(C3CC3)c(=O)c3c(Nc4ccc(I)cc4F)n(C)c(=O)c(C)c32)c1`, the % of control was 97% in experiment [1] and 102% in experiment [2].

For the compound `COc1cc(N(C)c2ccnc3ccc(C(F)(F)F)cc23)cc(OC)c1OC`, in experiment [3], the % binding came out at 100%.

Compound `COCC(=O)NC/C=C/c1ccc2ncnc(Nc3ccc(Oc4ccc(C)nc4)c(C)c3)c2c1` [CP-724714] yielded a % of control in experiment [4] of 100%.

For the compound `CN1Cc2nccc(-c3cn(C)nc3-c3ccc(F)cc3)c2C1=O`, the % of inhibition in experiment [5] turned out to be 8%.

For the origin of these results see ChEMBL document CHEMBL5465560, “Selectivity Literature for EUbOPEN Chemogenomic Library” (2024).
